Assay results: BindingDB's records for PubMed 10411589 (The University of Queensland, 1999)

Key:
[1] = target: Sodium-dependent noradrenaline transporter (Homo sapiens, UniProt P23975)
[2] = target: Sodium-dependent noradrenaline transporter (Bos taurus, UniProt P51143)
[3] = target: Norepinephrine transporter (Rattus norvegicus, UniProt Q9JIA2)

Sequence of Sodium-dependent noradrenaline transporter (Bos taurus, UniProt P51143) (P51143 whole entry): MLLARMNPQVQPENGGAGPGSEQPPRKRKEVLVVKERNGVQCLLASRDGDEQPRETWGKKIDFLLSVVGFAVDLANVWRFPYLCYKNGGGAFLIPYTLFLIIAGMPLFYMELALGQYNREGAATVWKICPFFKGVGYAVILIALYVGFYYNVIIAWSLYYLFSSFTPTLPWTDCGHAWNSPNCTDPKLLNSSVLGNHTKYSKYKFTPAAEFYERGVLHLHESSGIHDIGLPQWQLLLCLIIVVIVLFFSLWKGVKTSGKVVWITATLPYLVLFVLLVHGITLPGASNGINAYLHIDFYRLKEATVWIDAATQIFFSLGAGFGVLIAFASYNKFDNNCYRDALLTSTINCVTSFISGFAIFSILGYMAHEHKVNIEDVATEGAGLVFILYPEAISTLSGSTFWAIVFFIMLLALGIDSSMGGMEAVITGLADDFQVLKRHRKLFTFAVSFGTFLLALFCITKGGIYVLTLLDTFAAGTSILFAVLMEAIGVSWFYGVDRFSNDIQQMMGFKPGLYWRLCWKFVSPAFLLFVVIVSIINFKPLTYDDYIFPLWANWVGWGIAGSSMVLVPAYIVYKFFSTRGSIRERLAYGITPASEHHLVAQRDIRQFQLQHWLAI
Sequence of Sodium-dependent noradrenaline transporter (Homo sapiens, UniProt P23975) (P23975 whole entry): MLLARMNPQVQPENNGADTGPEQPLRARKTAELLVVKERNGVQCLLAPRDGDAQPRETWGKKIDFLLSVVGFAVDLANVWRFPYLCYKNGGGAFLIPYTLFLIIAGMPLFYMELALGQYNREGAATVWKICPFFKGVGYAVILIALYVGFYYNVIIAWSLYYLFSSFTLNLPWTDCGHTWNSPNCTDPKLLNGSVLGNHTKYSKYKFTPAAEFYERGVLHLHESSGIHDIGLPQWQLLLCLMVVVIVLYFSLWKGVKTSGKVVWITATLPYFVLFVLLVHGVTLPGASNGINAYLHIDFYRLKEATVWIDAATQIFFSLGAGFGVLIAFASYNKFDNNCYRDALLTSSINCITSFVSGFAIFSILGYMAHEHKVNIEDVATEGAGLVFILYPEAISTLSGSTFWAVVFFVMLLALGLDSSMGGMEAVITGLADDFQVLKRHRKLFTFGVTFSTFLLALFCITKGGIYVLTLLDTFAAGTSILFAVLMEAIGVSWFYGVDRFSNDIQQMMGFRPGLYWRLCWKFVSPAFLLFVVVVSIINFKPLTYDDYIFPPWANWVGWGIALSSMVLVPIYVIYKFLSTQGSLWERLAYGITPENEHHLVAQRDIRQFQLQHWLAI

SMILES	Ki [2] [nM]	Ki [3] [nM]	Ki [1] [nM]
C[n+]1ccc(-c2ccccc2)cc1 [NSC_39484]	570	778	507
CN(C)CCCN1c2ccccc2CCc2ccccc21	93.6	–	–
CNCCC(Oc1ccccc1OC)c1ccccc1 (stereo not given) [3-(2-methoxyphenoxy)-N-methyl-3-phenylpropan-1-amine]	–	5.74	–

The next lines start with results.

Ki [2] [nM]	Ki [3] [nM]	SMILES	Ki [1] [nM]
5000	6500	CNCC(O)c1ccc(O)c(O)c1 (stereo not given) [EPINEPHRINE]	3680
397	392	NCCc1ccc(O)c(O)c1	–
